Source: US10947271B2, “Antibacterial agents” (THE UNIVERSITY OF QUEENSLAND, priority 2014, dated 2021)

What was measured:
Format in all cases: cell-based
Conditions in all cases: 24 h incubation, visual reading
[1] = tested on: Enterococcus faecium MDR Van A ATCC 51559; test: MIC assay, E. faecium MDR Van A ATCC 51559
Procedure, shortened: (§1)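 MHB broth microdilution, twofold series, compounds 8–0.003 μg/ml; mid-log inoculum 5×10e5 CFU/mL; 37° C, 24 h; MIC read visually as lowest concentration without growth.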

[2] = tested on: Staphylococcus aureus MRSA ATCC 43300; test: MIC assay, S. aureus MRSA ATCC 43300
Procedure, shortened: as §1

[3] = tested on: Streptococcus pneumoniae MDR ATCC 700677; test: MIC assay, S. pneumoniae MDR ATCC 700677
Procedure, shortened: as §1

| Minimum Inhibitory Concentration (MIC) E. faecium ATCC51559 [1] | Minimum Inhibitory Concentration (MIC) Staph. aureus ATCC43300 [2] | Minimum Inhibitory Concentration (MIC) S. pneumoniae ATCC 700677 [3] | SMILES |
| --- | --- | --- | --- |
| xxx (xxx = 0.1-<1) | xxxxx (xxxxx = <0.01) | xxxxx (xxxxx = <0.01) | CCCCCCCCCCCC(=O)N[C@@H](CCCCN)C(=O)N[C@@H](CCCCN)C(=O)NCCCNC(=O)[C@H]1NC(=O)[C@H]2NC(=O)[C@H](NC(=O)[C@@H]3NC(=O)[C@H](CC(N)=O)NC(=O)[C@H](NC(=O)[C@@H](CC(C)C)NC)[C@H](O)c4ccc(c(Cl)c4)Oc4cc3cc(c4O[C@@H]3O[C@H](CO)[C@@H](O)[C@H](O)[C@H]3O[C@H]3C[C@](C)(N)[C@H](O)[C@H](C)O3)Oc3ccc(cc3Cl)[C@H]2O)c2ccc(O)c(c2)-c2c(O)cc(O)cc21 [MCC_000978] |
| xxx (xxx = 0.1-<1) | xxxxx (xxxxx = <0.01) | xxxxx (xxxxx = <0.01) | CCCCCCCCCCCCCC(=O)N[C@@H](CCCCN)C(=O)N[C@@H](CCCCN)C(=O)N[C@@H](Cc1cn(CCCNC(=O)[C@H]2NC(=O)[C@H]3NC(=O)[C@H](NC(=O)[C@@H]4NC(=O)[C@H](CC(N)=O)NC(=O)[C@H](NC(=O)[C@@H](CC(C)C)NC)[C@H](O)c5ccc(c(Cl)c5)Oc5cc4cc(c5O[C@@H]4O[C@H](CO)[C@@H](O)[C@H](O)[C@H]4O[C@H]4C[C@](C)(N)[C@H](O)[C@H](C)O4)Oc4ccc(cc4Cl)[C@H]3O)c3ccc(O)c(c3)-c3c(O)cc(O)cc32)nn1)C(N)=O [MCC_000979] |
| xxx (xxx = 0.1-<1) | xxxx (xxxx = 0.01-<0.1) | xxxx (xxxx = 0.01-<0.1) | CCCCCCCCCCCN1CCC(C(=O)N[C@@H](CCCCN)C(=O)N[C@@H](CCCCN)C(=O)N[C@@H](CCCCNC(=O)[C@H]2NC(=O)[C@H]3NC(=O)[C@H](NC(=O)[C@@H]4NC(=O)[C@H](CC(N)=O)NC(=O)[C@H](NC(=O)[C@@H](CC(C)C)NC)[C@H](O)c5ccc(c(Cl)c5)Oc5cc4cc(c5O[C@@H]4O[C@H](CO)[C@@H](O)[C@H](O)[C@H]4O[C@H]4C[C@](C)(N)[C@H](O)[C@H](C)O4)Oc4ccc(cc4Cl)[C@H]3O)c3ccc(O)c(c3)-c3c(O)cc(O)cc32)C(N)=O)CC1 [MCC_004818] |
| x (x = >4) | xxxx (xxxx = 0.01-<0.1) | xxx (xxx = 0.1-<1) | CCCCCCCN1CCC(C(=O)N[C@@H](CCCCN)C(=O)N[C@@H](CCCCN)C(=O)N[C@@H](CCCCNC(=O)[C@H]2NC(=O)[C@H]3NC(=O)[C@H](NC(=O)[C@@H]4NC(=O)[C@H](CC(N)=O)NC(=O)[C@H](NC(=O)[C@@H](CC(C)C)NC)[C@H](O)c5ccc(c(Cl)c5)Oc5cc4cc(c5O[C@@H]4O[C@H](CO)[C@@H](O)[C@H](O)[C@H]4O[C@H]4C[C@](C)(N)[C@H](O)[C@H](C)O4)Oc4ccc(cc4Cl)[C@H]3O)c3ccc(O)c(c3)-c3c(O)cc(O)cc32)C(N)=O)CC1 [MCC_004820] |
| xx (xx = 1-4) | xxxx (xxxx = 0.01-<0.1) | xxxx (xxxx = 0.01-<0.1) | CCCCCCCNc1ccc(C(=O)N[C@@H](CCCCN)C(=O)N[C@@H](CCCCN)C(=O)N[C@@H](CCCCNC(=O)[C@H]2NC(=O)[C@H]3NC(=O)[C@H](NC(=O)[C@@H]4NC(=O)[C@H](CC(N)=O)NC(=O)[C@H](NC(=O)[C@@H](CC(C)C)NC)[C@H](O)c5ccc(c(Cl)c5)Oc5cc4cc(c5O[C@@H]4O[C@H](CO)[C@@H](O)[C@H](O)[C@H]4O[C@H]4C[C@](C)(N)[C@H](O)[C@H](C)O4)Oc4ccc(cc4Cl)[C@H]3O)c3ccc(O)c(c3)-c3c(O)cc(O)cc32)C(N)=O)cc1 [MCC_004821] |
| x (x = >4) | xxx (xxx = 0.1-<1) | xx (xx = 1-4) | CNc1ccc(C(=O)N[C@@H](CCCCN)C(=O)N[C@@H](CCCCN)C(=O)N[C@@H](CCCCNC(=O)[C@H]2NC(=O)[C@H]3NC(=O)[C@H](NC(=O)[C@@H]4NC(=O)[C@H](CC(N)=O)NC(=O)[C@H](NC(=O)[C@@H](CC(C)C)NC)[C@H](O)c5ccc(c(Cl)c5)Oc5cc4cc(c5O[C@@H]4O[C@H](CO)[C@@H](O)[C@H](O)[C@H]4O[C@H]4C[C@](C)(N)[C@H](O)[C@H](C)O4)Oc4ccc(cc4Cl)[C@H]3O)c3ccc(O)c(c3)-c3c(O)cc(O)cc32)C(N)=O)cc1 [MCC_004822] |

Further lines, the compound ahead of its results:

| SMILES | Minimum Inhibitory Concentration (MIC) E. faecium ATCC51559 [1] | Minimum Inhibitory Concentration (MIC) Staph. aureus ATCC43300 [2] | Minimum Inhibitory Concentration (MIC) S. pneumoniae ATCC 700677 [3] |
| --- | --- | --- | --- |
| CNC(=O)[C@H](CCCCNC(=O)[C@H]1NC(=O)[C@H]2NC(=O)[C@H](NC(=O)[C@@H]3NC(=O)[C@H](CC(N)=O)NC(=O)[C@H](NC(=O)[C@@H](CC(C)C)NC)[C@H](O)c4ccc(c(Cl)c4)Oc4cc3cc(c4O[C@@H]3O[C@H](CO)[C@@H](O)[C@H](O)[C@H]3O[C@H]3C[C@](C)(N)[C@H](O)[C@H](C)O3)Oc3ccc(cc3Cl)[C@H]2O)c2ccc(O)c(c2)-c2c(O)cc(O)cc21)NC(=O)[C@@H](CCCCN)NC(=O)[C@@H](CCCCN)NC(=O)[C@H](CCCCNC(=O)c1ccc(Oc2ccccc2)cc1)NC(=O)c1ccc(Oc2ccccc2)cc1 [MCC_000766] | xx (xx = 1-4) | xxxxx (xxxxx = <0.01) | xxxxx (xxxxx = <0.01) |
| CCCCCCCCCCCCCC(=O)NCCCC[C@H](NC(=O)CCCCCCCCCCCCC)C(=O)N[C@@H](CCCCN)C(=O)N[C@@H](CCCCN)C(=O)N[C@@H](CCCCNC(=O)[C@H]1NC(=O)[C@H]2NC(=O)[C@H](NC(=O)[C@@H]3NC(=O)[C@H](CC(N)=O)NC(=O)[C@H](NC(=O)[C@@H](CC(C)C)NC)[C@H](O)c4ccc(c(Cl)c4)Oc4cc3cc(c4O[C@@H]3O[C@H](CO)[C@@H](O)[C@H](O)[C@H]3O[C@H]3C[C@](C)(N)[C@H](O)[C@H](C)O3)Oc3ccc(cc3Cl)[C@H]2O)c2ccc(O)c(c2)-c2c(O)cc(O)cc21)C(=O)NC [MCC_000771] | x (x = >4) | x (x = >4) | x (x = >4) |
| CCCCCCC(CCCC)C(=O)NCCCC[C@H](NC(=O)C(CCCC)CCCCCC)C(=O)N[C@@H](CCCCN)C(=O)N[C@@H](CCCCN)C(=O)N[C@@H](CCCCNC(=O)[C@H]1NC(=O)[C@H]2NC(=O)[C@H](NC(=O)[C@@H]3NC(=O)[C@H](CC(N)=O)NC(=O)[C@H](NC(=O)[C@@H](CC(C)C)NC)[C@H](O)c4ccc(c(Cl)c4)Oc4cc3cc(c4O[C@@H]3O[C@H](CO)[C@@H](O)[C@H](O)[C@H]3O[C@H]3C[C@](C)(N)[C@H](O)[C@H](C)O3)Oc3ccc(cc3Cl)[C@H]2O)c2ccc(O)c(c2)-c2c(O)cc(O)cc21)C(=O)NC (stereo partly drawn) [MCC_000773] | xxx (xxx = 0.1-<1) | xxxx (xxxx = 0.01-<0.1) | xxxx (xxxx = 0.01-<0.1) |
| CCCCCCCCCCCCCC(=O)N[C@@H](CCCCN)C(=O)N[C@@H](CCCCN)C(=O)NCC(=O)NCCCNC(=O)[C@H]1NC(=O)[C@H]2NC(=O)[C@H](NC(=O)[C@@H]3NC(=O)[C@H](CC(N)=O)NC(=O)[C@H](NC(=O)[C@@H](CC(C)C)NC)[C@H](O)c4ccc(c(Cl)c4)Oc4cc3cc(c4O[C@@H]3O[C@H](CO)[C@@H](O)[C@H](O)[C@H]3O[C@H]3C[C@](C)(N)[C@H](O)[C@H](C)O3)Oc3ccc(cc3Cl)[C@H]2O)c2ccc(O)c(c2)-c2c(O)cc(O)cc21 [MCC_000784] | xxxx (xxxx = 0.01-<0.1) | xxxxx (xxxxx = <0.01) | xxxxx (xxxxx = <0.01) |
| CCCCCCCCCN1CCC(C(=O)N[C@@H](CCCCN)C(=O)N[C@@H](CCCCN)C(=O)NCCCNC(=O)[C@H]2NC(=O)[C@H]3NC(=O)[C@H](NC(=O)[C@@H]4NC(=O)[C@H](CC(N)=O)NC(=O)[C@H](NC(=O)[C@@H](CC(C)C)NC)[C@H](O)c5ccc(c(Cl)c5)Oc5cc4cc(c5O[C@@H]4O[C@H](CO)[C@@H](O)[C@H](O)[C@H]4O[C@H]4C[C@](C)(N)[C@H](O)[C@H](C)O4)Oc4ccc(cc4Cl)[C@H]3O)c3ccc(O)c(c3)-c3c(O)cc(O)cc32)CC1 [MCC_000937] | xx (xx = 1-4) | xxxx (xxxx = 0.01-<0.1) | xxxx (xxxx = 0.01-<0.1) |
| CCCCCCCCCCCCCC(=O)N[C@@H](CCCCN)C(=O)N[C@@H](CCCCN)C(=O)N[C@@H](CCCCNC(=O)[C@H]1NC(=O)[C@H]2NC(=O)[C@H](NC(=O)[C@@H]3NC(=O)[C@H](CC(N)=O)NC(=O)[C@H](NC(=O)[C@@H](CC(C)C)NC)[C@H](O)c4ccc(c(Cl)c4)Oc4cc3cc(c4O[C@@H]3O[C@H](CO)[C@@H](O)[C@H](O)[C@H]3O[C@H]3C[C@](C)(N)[C@H](O)[C@H](C)O3)Oc3ccc(cc3Cl)[C@H]2O)c2ccc(O)c(c2)-c2c(O)cc(O)cc21)C(N)=O [MCC_000974] | xxx (xxx = 0.1-<1) | xxxxx (xxxxx = <0.01) | xxxxx (xxxxx = <0.01) |
| CCCCCCCCCCCCC(=O)N[C@@H](CCCCN)C(=O)N[C@@H](CCCCN)C(=O)N[C@@H](CCCCNC(=O)[C@H]1NC(=O)[C@H]2NC(=O)[C@H](NC(=O)[C@@H]3NC(=O)[C@H](CC(N)=O)NC(=O)[C@H](NC(=O)[C@@H](CC(C)C)NC)[C@H](O)c4ccc(c(Cl)c4)Oc4cc3cc(c4O[C@@H]3O[C@H](CO)[C@@H](O)[C@H](O)[C@H]3O[C@H]3C[C@](C)(N)[C@H](O)[C@H](C)O3)Oc3ccc(cc3Cl)[C@H]2O)c2ccc(O)c(c2)-c2c(O)cc(O)cc21)C(N)=O [MCC_000975] | xxx (xxx = 0.1-<1) | xxxxx (xxxxx = <0.01) | xxxxx (xxxxx = <0.01) |
